In patent US10604489B2, “Compounds for the treatment of pain” (priority 2018, dated 2020):
Structures can show the parent of a compound that is named as a salt.

Experiments:
μ-receptor = μ-receptor (Homo sapiens (Human), UniProt P35372); test: Receptor binding, competitive displacement of [3H]DAMGO; details: 0.25 nM [3H]DAMGO, CHO cell membrane protein, 60 min at 25° C.
In short: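 Membranes from CHO cells stably expressing cloned human μ-opioid receptor incubated 60 min at 25 °C with 12 compound concentrations and 0.25 nM [3H]DAMGO in 50 mM Tris-HCl pH 7.5; nonspecific binding with 10 μM naloxone. Filtration and scintillation counting; Ki from IC50 by Cheng-Prusoff.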

human μ opioid receptor = human μ opioid receptor (Homo sapiens (Human), UniProt P35372); test: Functional activity ([35S]GTPγS binding); format: biochemical; details: [35S]GTPγS 0.080 nM, CHO cell membranes, 60 min at 30° C., filtration
In short: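 Membranes from stably transfected CHO cells (7.5 μg) incubated with 12 test-compound concentrations and 0.080 nM [35S]GTPγS in 50 mM Tris-HCl pH 7.4, 3 mM MgCl2, 0.2 mM EGTA, 3 μM GDP, 100 mM NaCl, 60 min at 30° C. Nonspecific binding defined with 10 μM GTPγS; bound label collected by filtration and scintillation counting.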

Compound	Ki (μ-receptor)	EC50 (human μ opioid receptor)
COC1(c2cccc(C(N)=O)c2)C2CCCC1CN(C1CCOCC1)C2 [Compound 45, 3-((1R,5S,9r)-9-methoxy-3-(tetrahydro-2H-pyran-4-yl)-3-azabicyclo[3.3.1]nonan-9-yl)benzamide hydrochloride]	1 to 5 nM	10 to 75 nM
COC1(c2cccc(C(N)=O)c2)C2CCCC1CN(C[C@H]1CCOC1)C2 (single isomer, unassigned) [Compound 148, hydrochloride]	< 1 nM	< 10 nM
COC1(c2ccnc(C(N)=O)c2)C2CCCC1CN([C@H]1CC[C@@H]1C)C2 (stereo in doubt) [Compound 147, 4-((1R,5S,9R)-9-methoxy-3-((1R,2R)-2-methylcyclobutyl)-3-azabicyclo[3.3.1]nonan-9-yl)picolinamide hydrochloride]	1 to 5 nM	10 to 75 nM
COC1(c2ccnc(C(N)=O)c2)C2CCCC1CN(CCC1CC1)C2 [Compound 86, 4-((1R,5S,9r)-3-(2-cyclopropylethyl)-9-methoxy-3-azabicyclo[3.3.1]nonan-9-yl)picolinamide hydrochloride]	1 to 5 nM	10 to 75 nM
COC1(c2cccc(C(N)=O)c2)C2CCCC1CN(CC1CCC1)C2 [Compound 26, 3-((1R,5S,9r)-3-(cyclobutylmethyl)-9-methoxy-3-azabicyclo[3.3.1]nonan-9-yl)benzamide hydrochloride]	< 1 nM	< 10 nM
COC1(c2cccc(C(N)=O)c2O)C2CCCC1CN(C)C2 [Compound 49, 2-hydroxy-3-((1R,5S,9r)-9-methoxy-3-methyl-3-azabicyclo[3.3.1]nonan-9-yl)benzamide hydrochloride]	< 1 nM	< 10 nM
COC1(c2ccnc(C(N)=O)c2)C2CCCC1CN(Cc1cncn1C)C2 [Compound 121, 4-((1R,5S,9r)-9-methoxy-3-((1-methyl-1H-imidazol-5-yl)methyl)-3-azabicyclo[3.3.1]nonan-9-yl)picolinamide hydrochloride]	1 to 5 nM	> 75 nM
COC1(c2cccc(C(N)=O)c2)C2CCCC1CNC2 [Compound 35, 3-((1R,5S,9r)-9-methoxy-3-azabicyclo[3.3.1]nonan-9-yl)benzamide hydrochloride]	< 1 nM	10 to 75 nM
COC1(c2ccnc(C(N)=O)c2)C2CCCC1CN(C13CC(C1)C3)C2 [Compound 103, 4-((1R,5S,9r)-3-(bicyclo[1.1.1]pentan-1-yl)-9-methoxy-3-azabicyclo[3.3.1]nonan-9-yl)picolinamide hydrochloride]	1 to 5 nM	> 75 nM
COC1(c2cccc(C(N)=O)c2)C2CCCC1CN(C[C@@H]1CCOC1)C2.Cl (single isomer, unassigned) [Compound 143, hydrochloride]	< 1 nM	< 10 nM
CCCC(C)N1CC2CCCC(C1)C2(OC)c1ccnc(C(N)=O)c1 [Compound 118, 4-((1R,5S,9r)-9-methoxy-3-(pentan-2-yl)-3-azabicyclo[3.3.1]nonan-9-yl)picolinamide hydrochloride]	1 to 5 nM	10 to 75 nM
COC1(c2cccc(C(N)=O)c2)C2CCCC1CN(CCS(C)(=O)=O)C2 [Compound 150, 3-((1R,5S,9r)-9-methoxy-3-(2-(methylsulfonyl)ethyl)-3-azabicyclo[3.3.1]nonan-9-yl)benzamide hydrochloride]	1 to 5 nM	> 75 nM
COC1(c2ccnc(C(N)=O)c2)C2CCCC1CN(Cc1ccno1)C2 [Compound 124, 4-((1R,5S,9r)-3-(isoxazol-5-ylmethyl)-9-methoxy-3-azabicyclo[3.3.1]nonan-9-yl)picolinamide hydrochloride]	> 5 nM	> 75 nM
COC1(c2ccnc(C(N)=O)c2)C2CCCC1CN(CC1(O)Cc3ccccc3C1)C2 [Compound 73, 4-((1R,5S,9r)-3-((2-hydroxy-2,3-dihydro-1H-inden-2-yl)methyl)-9-methoxy-3-azabicyclo[3.3.1]nonan-9-yl)picolinamide hydrochloride]	< 1 nM	< 10 nM
COC1(c2cccc(C(N)=O)c2)C2CCCC1CN(C[C@@H]1[C@@H]3COC[C@@H]31)C2 (stereo partly drawn) [Compound 175]	< 1 nM	10 to 75 nM
COC1(c2ccnc(C(N)=O)c2)C2CCCC1CN([C@@H]1CC[C@H]1c1ccccc1)C2 (stereo partly drawn) [Compound 109, 4-((1R,5S,9R)-9-methoxy-3-((1R,2S)-2-phenylcyclobutyl)-3-azabicyclo[3.3.1]nonan-9-yl)picolinamide hydrochloride]	< 1 nM	< 10 nM
COC1(c2ccnc(C(N)=O)c2)C2CCCC1CN([C@H]1C[C@@H](OC)C1)C2 (stereo partly drawn) [Compound 139, 4-((1R,5S,9R)-9-methoxy-3-((1r,3R)-3-methoxycyclobutyl)-3-azabicyclo[3.3.1]nonan-9-yl)picolinamide hydrochloride]	< 1 nM	10 to 75 nM

Compound	Ki (μ-receptor)	EC50 (human μ opioid receptor)
COC1(c2ccc(C(N)=O)s2)C2CCCC1CN(C1CN(C(C)=O)C1)C2 [Compound 114, 5-((1R,5S,9r)-3-(1-acetylazetidin-3-yl)-9-methoxy-3-azabicyclo[3.3.1]nonan-9-yl)thiophene-2-carboxamide hydrochloride]	> 5 nM	> 75 nM
COC1(c2cccc(C(N)=O)c2)C2CCCC1CN(CCc1ccccc1)C2 [Compound 24, 3-((1R,5S,9r)-9-methoxy-3-phenethyl-3-azabicyclo[3.3.1]nonan-9-yl)benzamide hydrochloride]	< 1 nM	< 10 nM
COC1(c2ccc(C(N)=O)s2)C2CCCC1CN(C13CC(C1)C3)C2 [Compound 112, 5-((1R,5S,9r)-3-(bicyclo[1.1.1]pentan-1-yl)-9-methoxy-3-azabicyclo[3.3.1]nonan-9-yl)thiophene-2-carboxamide hydrochloride]	1 to 5 nM	> 75 nM
COC1(c2cccc(C(N)=O)c2)C2CCCC1CN(CC1CCS(=O)(=O)CC1)C2 [Compound 1, 3-((1R,5S,9r)-3-((1,1-dioxidotetrahydro-2H-thiopyran-4-yl)methyl)-9-methoxy-3-azabicyclo[3.3.1]nonan-9-yl)benzamide hydrochloride]	1 to 5 nM	> 75 nM
COC1(c2ccc(C(N)=O)s2)C2CCCC1CN(C1CCCCC1)C2 [Compound 101, 5-((1R,5S,9r)-3-cyclohexyl-9-methoxy-3-azabicyclo[3.3.1]nonan-9-yl)thiophene-2-carboxamide hydrochloride]	1 to 5 nM	> 75 nM
COC1(c2ccnc(C(N)=O)c2)C2CCCC1CN(C1CC3(CCC3)C1)C2 [Compound 77, 4-((1R,5S,9r)-9-methoxy-3-(spiro[3.3]heptan-2-yl)-3-azabicyclo[3.3.1]nonan-9-yl)picolinamide hydrochloride]	< 1 nM	< 10 nM
COC1(c2ccc(C(N)=O)s2)C2CCCC1CN(CCN1CCCS1(=O)=O)C2 [Compound 97, 5-((1R,5S,9r)-3-(2-(1,1-dioxidoisothiazolidin-2-yl)ethyl)-9-methoxy-3-azabicyclo[3.3.1]nonan-9-yl)thiophene-2-carboxamide (S)-2-hydroxysuccinate]	< 1 nM	10 to 75 nM
COC1(c2ccnc(C(N)=O)c2F)C2CCCC1CN(C1CC1)C2 [Compound 57, 4-((1R,5S,9r)-3-cyclopropyl-9-methoxy-3-azabicyclo[3.3.1]nonan-9-yl)-3-fluoropicolinamide hydrochloride]	> 5 nM	> 75 nM
COC1(c2ccnc(C(N)=O)c2)C2CCCC1CN(C(C)C)C2 [Compound 76, 4-((1R,5S,9r)-3-isopropyl-9-methoxy-3-azabicyclo[3.3.1]nonan-9-yl)picolinamide hydrochloride]	1 to 5 nM	10 to 75 nM
COC1(c2ccnc(C(N)=O)c2)C2CCCC1CN(Cc1ccccn1)C2 [Compound 67, 4-((1R,5S,9r)-9-methoxy-3-(pyridin-2-ylmethyl)-3-azabicyclo[3.3.1]nonan-9-yl)picolinamide dihydrochloride]	1 to 5 nM	10 to 75 nM
COC1(c2ccnc(C(N)=O)c2F)C2CCCC1CN(C)C2 [Compound 53, 3-fluoro-4-((1R,5S,9r)-9-methoxy-3-methyl-3-azabicyclo[3.3.1]nonan-9-yl)picolinamide hydrochloride]	1 to 5 nM	> 75 nM
COC1(c2ccnc(C(N)=O)c2)C2CCCC1CN(C1CC(F)(F)C1)C2 [Compound 82, 4-((1R,5S,9r)-3-(3,3-difluorocyclobutyl)-9-methoxy-3-azabicyclo[3.3.1]nonan-9-yl)picolinamide hydrochloride]	1 to 5 nM	10 to 75 nM
COC1(c2cccc(C(N)=O)c2)C2CCCC1CN(C1CC3(CCOCC3)C1)C2 [Compound 6, 3-((1R,5S,9r)-9-methoxy-3-(7-oxaspiro[3.5]nonan-2-yl)-3-azabicyclo[3.3.1]nonan-9-yl)benzamide hydrochloride]	< 1 nM	< 10 nM
COC1(c2cccc(C(N)=O)c2)C2CCCC1CN(CCC(F)F)C2 (stereo not drawn) [Compound 159]	< 1 nM	< 10 nM
COC1(c2ccnc(C(N)=O)c2)C2CCCC1CN([C@H]1CCCOC1)C2 (stereo partly drawn) [Compound 132, 4-((1R,5S,9s)-9-methoxy-3-((S)-tetrahydro-2H-pyran-3-yl)-3-azabicyclo[3.3.1]nonan-9-yl)picolinamide hydrochloride]	1 to 5 nM	> 75 nM
COC1(c2ccnc(C(N)=O)c2)C2CCCC1CN(Cc1ncco1)C2 [Compound 113, 4-((1R,5S,9r)-9-methoxy-3-(oxazol-2-ylmethyl)-3-azabicyclo[3.3.1]nonan-9-yl)picolinamide hydrochloride]	> 5 nM	> 75 nM
